Measured values taken from patent US12359188B2, “Method for producing therapeutic exosomes from nanoelectroporation and other non-endocytic cell transfection” (Ohio State Innovation Foundation, priority 2017, dated 2025).

Tested on: NEP transfected MEF cells
Experiment: Effect of HSP70/HSP90 inhibitors on EV secretion from NEP transfected MEF cells (DLS goniometry)
Type: cell-based, mouse
Conditions: medium collected 24 h post-transfection
Description: After NEP transfection, the cell culture was replaced with fresh medium containing HSP70 inhibitor (VER 155008, 50 μM), HSP90 inhibitor (NVP-HSP990, 1 μM), or their mixture. Medium was collected at 24 h post-transfection, and EV numbers were detected by dynamic light scattering (DLS) goniometry;
During electroporation, Joule heating caused by the imposed electric field could tentatively increase the cell temperature to cause thermal shocking to the transfected cells. It is known that thermal shocking may increase cell secretion of EVs due to chaperone mediated autophage caused by the increase of heat shock proteins in cells (8-10). […] When HSP inhibitors were added in cell culture medium after electroporation, EV secretion could be suppressed. […] Here, the cell culture was replaced with fresh medium containing HSP70 inhibitor (VER 155008), HSP90 inhibitor (NVP-HSP990), or their mixture right after NEP transfection. Medium was collected at 24 h post-transfection and EV numbers were detected by dynamic light scattering (DLS) goniometry.

SMILES | decrease of EV secretion (HSP90 inhibitor 1 μM in fresh medium right after NEP transfection) [%] | decrease of EV secretion (HSP70 inhibitor 50 μM in fresh medium right after NEP transfection) [%]
COc1cccc(-c2cc(F)ccc2[C@H]2Cc3nc(N)nc(C)c3C(=O)N2)n1 [NVP-HSP990] | 40 | –
N#Cc1ccc(COC[C@H]2O[C@@H](n3c(NCc4ccc(Cl)c(Cl)c4)nc4c(N)ncnc43)[C@H](O)[C@@H]2O)cc1 [VER 155008] | – | 50
